Experimental data as given in patent US20050119297A1, “Use of 5HT3 agonists for relaxing the fundus” (priority 1999, published 2005).

Legend:
[1] = tested on: gastric tone in conscious dogs; experiment: Gastric tone measured by an electronic barostat in conscious dogs; assay type: in vivo, beagle dogs; details: mean maximal change in gastric volume 1 hour after administration, intragastric pressure 6 mmHg
Method: C.1. Gastric Tone Measured by an Electronic Barostat in Conscious Dogs
Gastric tone cannot be measured by manometric methods. Therefore an electronic barostat was used. This allows the study of the physiological pattern and regulation of gastric tone in conscious dogs and the influence of test-compounds on this tone.
The barostat consists of an air injection system which is connected by a double-lumen 14-French polyvinyl tube to an ultrathin flaccid polyethylene bag (maximal volume: ±700 ml). Variations in gastric tone were measured by recording changes in the volume of air within an intragastric bag, maintained at a constant pressure. The barostat maintains a constant pressure (preselected) within a flaccid air-filled bag introduced into the stomach, changing the volume of air within the bag by an electronic feedback system.
Thus, the barostat measures gastric motor activity (contraction or relaxation) as changes in intragastric volume (decrease or increase resp.) at a constant intragastric pressure. The barostat consists of a strain gauge linked by an electronic relay to an air injection-aspiration system. Both the strain gauge and the injection system are connected by means of double-lumen polyvinyl tube to an ultrathin polyethylene bag. A dial in the barostat allows selection of the pressure level to be maintained within the intragastric bag.
Female beagle dogs, weighing 7-17 kg, were trained to stand quietly in Pavlov frames. They were implanted with a gastric cannula under general anaesthesia and aseptic precautions. After a median laparotomy, an incision was made through the gastric wall in longitudinal direction between the greater and the lesser curve, 2 cm above the nerves of Latarjet. The cannula was secured to the gastric wall by means of a double purse string suture and brought out via a stub wound at the left quadrant of the hypochondrium. Dogs were allowed a recovery period of two weeks.
At the beginning of the experiment, the cannula is opened in order to remove any gastric juice or food remnants. If necessary, the stomach is cleansed with 40 to 50 ml lukewarm water. The ultrathin bag of the barostat is positioned into the fundus of the stomach through the gastric cannula. In order to ensure easy unfolding of the intragastric bag during the experiment, a volume of 150-200 ml is injected into the bag by raising the pressure to maximally 14 mm Hg (about 1.87 kPa) very briefly. This procedure is repeated twice.
After a stabilization period of 60 minutes at an intragastric pressure of 6 mmHg (about 0.81 kPa), the test compound was administered subcutaneously, or intraduodenally. […] Table C-1 summarizes the mean maximal change in volume 1 hour after I.D. or S.C. administration of the compound (R)-N-(1-azabicyclo[2.2.2]oct-3-yl)-4,7-dihydro-7-oxothieno[3,2-b]pyridine-6-carboxamide monohydrochloride at test concentrations of 0.63 mg/kg, 0.16 mg/kg and 0.04 mg/kg.

5-HT3 receptor = details: canine intestinal smooth muscle; read-out: affinity for the 5-HT3 receptor IC50; cited from earlier work

Cl.O=C(N[C@H]1CN2CCC1CC2)c1c[nH]c2ccsc2c1=O [(R)-N-(1-azabicyclo[2.2.2]oct-3-yl)-4,7-dihydro-7-oxothieno[3,2-b]pyridine-6-carboxamide monohydrochloride]
Maximum change in volume ([1]; I.D. administration, 0.04 mg/kg): 57 mL | Maximum change in volume ([1]; I.D. administration, 0.16 mg/kg): 51 mL | Maximum change in volume ([1]; I.D. administration, 0.63 mg/kg): 104 mL | Maximum change in volume ([1]; S.C. administration, 0.04 mg/kg): 127 mL | Maximum change in volume ([1]; S.C. administration, 0.16 mg/kg): 108 mL | Maximum change in volume ([1]; S.C. administration, 0.63 mg/kg): 156 mL | IC50 (5-HT3 receptor): 1.3 nM
